Experimental data published in ChEMBL document CHEMBL1201862, “PubChem BioAssay data set” (2004).
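These data come from cells grown in 96-well plates and exposed to compound for 48 hours at five concentrations. The concentration for 50% growth inhibition is given as GI50.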 Activity calls are given as the source filed them. Cut-off read from the data, not from the text of the source: active = GI50 up to about 1.1 µM and inactive = higher.

Columns and labels:
Assay in all cases: NCI-60 cell line screen, 48 h
[1] = test system: COLO 205
[2] = test system: HT-29
[3] = test system: SK-MEL-5
[4] = test system: U-251
[5] = test system: OVCAR-8
[6] = test system: NCI-H23
[7] = test system: SF-539
[8] = test system: IGROV-1
[9] = test system: XF498
[10] = test system: HOP-62
[11] = test system: OVCAR-3
[12] = test system: SW-620
[13] = test system: HOP-92
[14] = test system: UACC-257
[15] = test system: MOLT-4
[16] = test system: UO-31
[17] = test system: SK-MEL-28
[18] = test system: NCI-H460
[19] = test system: HCT-15
[20] = test system: SF-268

| SMILES | GI50 [1] | GI50 [2] | GI50 [3] | GI50 [4] | GI50 [5] | GI50 [6] | GI50 [7] | GI50 [8] | GI50 [9] | GI50 [10] | GI50 [11] | GI50 [12] | GI50 [13] | GI50 [14] | GI50 [15] | GI50 [16] | GI50 [17] | GI50 [18] | GI50 [19] [µM] | GI50 [20] |
| --- | --- | --- | --- | --- | --- | --- | --- | --- | --- | --- | --- | --- | --- | --- | --- | --- | --- | --- | --- | --- |
| CC[C@@]1(O)C[C@H](OC2CC(N(C)C)C(O)C(C)O2)c2c(cc3c(c2O)C(=O)c2c(O)ccc(O)c2C3=O)[C@H]1C(=O)OC (some centres not stated) | 0.0467 µM (active) | 0.0388 µM (active) | 0.0938 µM (active) | 0.0405 µM (active) | 0.0239 µM (active) | 0.11 µM (active) | 0.0895 µM (active) | 0.0468 µM (active) | 0.106 µM (active) | 0.107 µM (active) | 0.149 µM (active) | 0.0267 µM (active) | 0.256 µM (active) | 0.0863 µM (active) | 0.0252 µM (active) | 0.158 µM (active) | 0.148 µM (active) | 0.0221 µM (active) | 0.0452 | 0.0536 µM (active) |
| O=Cc1c(Cn2ccnc2)c2cc([N+](=O)[O-])ccc2n1Cc1ccccc1 | > 100 µM (inactive) | > 100 µM (inactive) | 99.1 µM (inactive) | 37.3 µM (inactive) | > 81.3 µM (inactive) | > 100 µM (inactive) | > 72.6 µM (inactive) | > 83 µM (inactive) | > 100 µM (inactive) | 27.3 µM (inactive) | > 100 µM (inactive) | > 100 µM (inactive) | > 100 µM (inactive) | > 100 µM (inactive) | > 100 µM (inactive) | > 60.1 µM (inactive) | > 100 µM (inactive) | 37.3 µM (inactive) | > 100 | > 92.7 µM (inactive) |
| CC(C)=CC1CC(=O)C1(C)Sc1ccccc1 (configuration not stated) | 23.1 µM (inactive) | 27.4 µM (inactive) | 33.3 µM (inactive) | 67 µM (inactive) | > 100 µM (inactive) | 56.4 µM (inactive) | > 100 µM (inactive) | > 100 µM (inactive) | 37.7 µM (inactive) | > 100 µM (inactive) | 52.4 µM (inactive) | – | 29.9 µM (inactive) | 45.5 µM (inactive) | 34.4 µM (inactive) | 50.2 µM (inactive) | > 100 µM (inactive) | 25 µM (inactive) | 17.3 | 51.3 µM (inactive) |
| CC(c1ccccc1)/[N+]([O-])=C/c1ccccc1 (configuration not stated) | > 100 µM (inactive) | > 100 µM (inactive) | – | > 100 µM (inactive) | > 100 µM (inactive) | > 100 µM (inactive) | > 100 µM (inactive) | > 100 µM (inactive) | > 100 µM (inactive) | > 100 µM (inactive) | > 100 µM (inactive) | > 100 µM (inactive) | > 100 µM (inactive) | > 100 µM (inactive) | > 100 µM (inactive) | > 100 µM (inactive) | > 100 µM (inactive) | > 100 µM (inactive) | – | > 100 µM (inactive) |
| COC(=O)C1C(O)C(C)C(O)OC1C(C)C(O)C(C)/C=C\C=C(/C)C(=O)Nc1c(C)c(OC(C)=O)c2c(c1O)C(=O)C(C)=C1OCOC(/C(C)=C/C(C)=O)=C12 (configuration not stated) | 8.99 µM (inactive) | 14.5 µM (inactive) | 12.8 µM (inactive) | 14.4 µM (inactive) | 13.7 µM (inactive) | 14.2 µM (inactive) | 13.2 µM (inactive) | 12.6 µM (inactive) | 13.8 µM (inactive) | 11.6 µM (inactive) | 9.38 µM (inactive) | 9.53 µM (inactive) | 12.8 µM (inactive) | 12.5 µM (inactive) | 10.7 µM (inactive) | 16.4 µM (inactive) | 2.99 µM (inactive) | 13.7 µM (inactive) | 14.3 | 3.08 µM (inactive) |
| C=C1C(=O)OC2/C=C(\C(=O)O)CC/C=C(\C)CC(OC(=O)/C=C(\C)CC)C12 (configuration not stated) | 17 µM (inactive) | 15.7 µM (inactive) | 18.8 µM (inactive) | 17 µM (inactive) | 17.2 µM (inactive) | 16.4 µM (inactive) | 15.7 µM (inactive) | 19.4 µM (inactive) | 18.3 µM (inactive) | 20.1 µM (inactive) | 16.3 µM (inactive) | 16.6 µM (inactive) | 20.9 µM (inactive) | 18.2 µM (inactive) | > 100 µM (inactive) | 19.9 µM (inactive) | 18.8 µM (inactive) | 16.1 µM (inactive) | 14.6 | 14.9 µM (inactive) |
| CCCCCCCCCCCCCCCCNCC(O)CN (configuration not stated) | 1.87 µM (inactive) | 1.99 µM (inactive) | 11.7 µM (inactive) | 2.51 µM (inactive) | 3.53 µM (inactive) | 6.71 µM (inactive) | 2.34 µM (inactive) | 5.19 µM (inactive) | 7.29 µM (inactive) | 16.7 µM (inactive) | 2.52 µM (inactive) | 1.79 µM (inactive) | 2.65 µM (inactive) | 9.89 µM (inactive) | 2.07 µM (inactive) | 7.73 µM (inactive) | 13.1 µM (inactive) | 1.84 µM (inactive) | 2.06 | 3.32 µM (inactive) |
| O=S(=O)(O)c1ccc(/N=N\c2ccc(/N=N\c3ccc(/C=C/c4ccc(/N=[N+](/[O-])c5ccc(/C=C/c6ccc(/N=N/c7ccc(/N=N\c8ccc(S(=O)(=O)O)cc8)cc7)cc6S(=O)(=O)O)c(S(=O)(=O)O)c5)cc4S(=O)(=O)O)c(S(=O)(=O)O)c3)cc2)cc1 | > 100 µM (inactive) | > 100 µM (inactive) | > 100 µM (inactive) | > 100 µM (inactive) | > 100 µM (inactive) | > 100 µM (inactive) | > 100 µM (inactive) | > 100 µM (inactive) | > 100 µM (inactive) | > 100 µM (inactive) | > 100 µM (inactive) | > 100 µM (inactive) | > 100 µM (inactive) | > 100 µM (inactive) | > 100 µM (inactive) | > 100 µM (inactive) | > 100 µM (inactive) | > 100 µM (inactive) | > 100 | > 100 µM (inactive) |
| O=C(NC(Cc1ccc(I)cc1)C(=O)O)c1ccc(Cl)cc1 (configuration not stated) | > 100 µM (inactive) | > 100 µM (inactive) | > 100 µM (inactive) | > 100 µM (inactive) | > 100 µM (inactive) | > 100 µM (inactive) | > 77.1 µM (inactive) | > 100 µM (inactive) | > 80.9 µM (inactive) | > 100 µM (inactive) | > 88.5 µM (inactive) | > 100 µM (inactive) | 67.8 µM (inactive) | > 100 µM (inactive) | > 74.3 µM (inactive) | > 100 µM (inactive) | > 100 µM (inactive) | > 100 µM (inactive) | > 100 | > 100 µM (inactive) |
